Entries after “also recorded” stand apart in the source; their conditions may differ.
Legend:
Assay type in all cases: in vivo
[1] = tested on: amphetamine-induced hyperactivity in mice; test: Amphetamine-induced hyperactivity and stereotypic behavior
Excerpt: The amphetamine-induced hyperactivity and motility is one of the most popular animal models for schizophrenia (Pouzet B, et al., Effects of the 5-HT(7) receptor antagonist SB-258741 in animal models for schizophrenia. Pharmacol Biochem Behav April; 71(4):655-665, 2002 and Geyer, et al., Animal behavior models of the mechanisms underlying antipsychotic atypicalicity, Progress in Neuro-Psychopharmacol & Biological Psychiatry, 27, 1071-79, 2003). Amphetamines are known to augment dopaminergic and noradrenergic neurotransmission by inducing catecholamine release and preventing catecholamine reuptake
The experiment was conducted with ICR male mice placed in individual barrels. […] The locomotor activity, number of rearings and head movements was recorded every 15 minutes for 2 h.
As stated above, the amphetamine-induced hyperactivity and motility is one of the most popular animal models for schizophrenia. The experiment was conducted with ICR male mice placed in individual barrels. Compound 1 (20 mg/kg) was administered p.o to the mice 1 hr prior to i.p. administration of amphetamine (2. mg/kg). The hyper-active behavior expressed by the number of climbings and rearings and the stereotypic behavior expressed by the number of head movements was recorded every 15 minutes over a period of 1 h.
The effect of Compound 3 (12.5, 25 and 50 mg/kg, i.p.) on amphetamine-induced hyperactivity in Balb/c mice was also examined. Animals (6 per group) were injected with Compound 3 (12.5, 25 and 50 mg/kg) and 30 minutes later received amphetamine (2 mg/kg ip). After 30 minutes, animals were exposed to an open field test for a period of 20 minutes.

[2] = tested on: mice; test: Open field exploratory locomotor activity
Excerpt: Open Field Exploratory Locomotor Activity
The procedure consists of subjecting an animal, usually a rodent, to an unknown large environment from which escape is prevented by surrounding walls. The open field test is now one of the most popular procedures in animal psychology (Crawley, et al., Exploratory behavior models of anxiety in mice, Neurosci Biobehav Rev 9 (1985), pp. 37-44). The procedure involves forced confrontation of a rodent with the situation. The animal is placed in the center or close to the walls of the apparatus and the following behavioral items are recorded for a period ranging from 5 to 20 minutes: horizontal locomotion, and frequency of rearing or leaning. In such a situation, rodents spontaneously prefer the periphery of the apparatus to activity in the central parts of the open field. Increase in time spent in the central part as well as of the ratio central/total locomotion or decrease of the latency to enter the central part are indications of anxiolysis.
In a typical test, an individual mouse was placed in a novel environment of a square open field (50×50 cm), the floor of which had been divided into 3 areas, as shown below. The area within 10 cm of the chamber walls was termed the periphery. […] One hour after drug administration, the animal was placed in the same corner of the field. The animal behavior in the open field was recorded by videotaping for 20-60 minutes and analyzed subsequently digitally using the Noldus software for animal behavior. The measurements included velocity, distance moved, frequency of visits to the central area, number of rearing events.
The effect of Compound 1 on the behavior of mice in the open field and the dose-dependent effect following i.p administration were evaluated. Naïve male Mice (Balb/c, Harlan Israel) were used. The animals, divided 3 to 5 animals per group, were administered with Compound 1 (12.5, 25, 50, 75 and 100 mg/kg) 1 hr prior to placing each in an open field. Mice were monitored for 1 hr (every 5 minutes) using the Noldus system, and their distance moved, velocity, time of immobility and number of rearings was recorded.
(§1) The effect of Compound 6 on the behavior of mice in the open field was also examined. Naïve male mice (Balb/c, Harlan Israel) were used. Animals (6 per group) were administered with Compound 6 (12.5, 25 and 50 mg/kg, i.p.) 1 hr prior to placing each in the open field. Mice were followed for 1 hr (every 5 minutes) using the Noldus system, and their distance moved, velocity, time of immobility and number of rearings was recorded.
The effect of oral administration of Compound 1 in the open field was tested by orally administering to male ICR mice varying amounts of Compound 1 (5, 10 and 20 mg/kg) or vehicle. Animals were placed in the open field 1 hr after drug administration and horizontal and vertical behavior was recorded for 20 minutes.
as §1, with “The dose-dependent” for “The”, “3 administered i.p.” for “6 on the behavior of mice”, “tested.” for “examined.”, “Animals” for “Animals (6 per group)”, “3” for “6”, “i.p., 6 per group)” for “i.p.)”
Animals were administered orally with Compound 1 (5, 10 and 20 mg/kg) or with a vehicle. Animals were placed in the open field 1 hr after drug administration and animal track was registered for 20 minutes. The time spent in the center (zone 3) and the frequency to the center were indicators of anxiety.

[3] = tested on: MK-801-induced hyperactivity in mice; test: MK-801-induced hyperactivity in open field
Experimental: MK-801-Induced Stereotype Behavior in Rats (in Open Field)—
MK-801 is an analogue of PCP which inhibits NMDA receptors and elicits hyperlocomotion and stereotypic behavior in rodents and is used as an animal model of schizophrenia (Stephen, et al., Topiramate antagonizes MK-801 in an animal model of schizophrenia, Eur. J. Pharmacol. 449, 2002, 121-5). For experimentation, naïve Balb/c mice were used. MK-801 (0.15 mg/kg i.p) was administered 40 minutes after Compound 1 (or any one of the other compounds of the invention) or a vehicle, and 20 minutes prior to placing the mouse in an open field.
Animals placed in the open field were followed for 60 minutes and their distance moved, velocity, duration of immobility, and number of rearing events were registered using the Noldus system.
As stated above, MK-801 inhibits NMDA receptors and elicits hyperlocomotion. Therefore, where an antagonism of the hyperactivity-induced by the MK-801 is observed upon administration of a compound of the invention, it is an indication as to the positive modulation of the NMDA activity. In other words, such a compound may be considered as useful in the treatment of schizophrenia.
The effect of Compound 6 on the distance moved in Balb/c mice exposed to MK-801 ([…]) i.p. and to Compound 6 (up to 12.5 mg/kg, i.p.) administered 1 hr prior to MK-801 was also tested.
As stated above, MK-801 (an NMDA receptor antagonist) is a widely accepted animal model for schizophrenia. The experiment was conducted with Balb/c male mice (Harlan Il), 6 per group. Compound 1 (50 mg/kg) was administered i.p. (1 hr before experimentation), to mice alone or combined with MK-801 (0.15 mg/kg, i.p.) administered 20 minutes prior to placing the mice individually in an open field for 60 minutes. The hyper-active behavior expressed by hyperlocomotion, velocity, strong mobility, number of rearing was evaluated using the Noldus system, each point represents the mean+/−6 determinations.

[4] = tested on: mice; test: Elevated plus maze; conditions: male Balb/c mice, oral, diazepam 1 mg/kg
Excerpt: The elevated plus maze is a widely used method to test anxiety in rodents (Pellow, et al., Pharmacol. Biochem. Behav., 24, 525-529 (1986)). The apparatus was made of wood and painted black, with two opposing open arms and two opposite enclosed arms of the same size. The arms were attached to a central square shaped in a plus sign. The whole apparatus was placed 50 cm above the floor. Anxious animals refrain from entering the open arm and prefer the closed arm.
In a typical experiment, Balb/c male mice were administered orally with 10 and 20 mg/kg of Compound 1 or Compound 6 and with a vehicle or with diazepam (1 mg/kg) administered per os (p.o.) 90 minutes before they were placed in the center of the maze. The frequency to the open aims, the time spent in the different arms, the velocity and number of rearings of the animals in each zone were recorded (Noldus).
Male Balb/c mice were used. Animals were transferred to the behavior room 24 hr before the experiment. Compound 1 or diazepam were administered orally 90 minutes before testing. Each treatment group included 5 animals.
Male Balb/c mice were used. Animals were transferred to the behavior room 24 hr before the experiment. Compound 6 (3, 9, or 27 mg/kg) or vehicle were administered orally 90 minutes before testing. Each treatment group included 5 animals.

[5] = tested on: mice; test: Forced swim test (FST); conditions: male ICR mice, 20 mg/kg oral
Excerpt: This is one of the most widely used tools for screening antidepressant activity pre-clinically in acute treatment. The test was first described by Porsolt et al., (Behavioral despair in mice: a primary screening test for antidepressants. Arch. Int. Pharmacodyn. Ther. 229, pp. 327-336, 1977). The FST test is based on the observation that rats and mice develop an immobile posture when placed in an inescapable cylinder of water. This behavior is considered a behavioral despair as opposed to active form of coping with stressful conditions. The FST test is considered a good screening tool with good reliability and predictive validity.
Three parameters were defined in the evaluation of FST:
1. Immobility—defined in the traditional Porsolt test as when no additional activity is observed other than that required to keep the animal's head above water;
2. Swimming behavior—being the movement (usually horizontal) throughout the chamber that also includes crossing into another quadrant;
3. Climbing behavior—being defined as the upward-directed movements (vertical) of the forepaws along the side of the swim chamber.
The test in mice was conducted acutely (60-90 minutes post oral drug administration) and animals were dropped to the cylinder for 6 minutes and scoring was performed in the last 4 minutes after 2 minutes of adaptation.
Round glass cylinders, 18 cm in diameter and 20 cm deep were used. Water temperature was 24-28° C. Four parameters were taken: immobility, velocity, distance and strong mobility. The immobility in the animals was defined by activity lower than 10% movement of the center of gravity of the animal. Swimming was defined by the distance and the velocity of the animal, and climbing was related to strong mobility (movement of center of gravidance more than 30%).
Males Balb/c mice (Harlan Israel) were used. Animals were administered orally with Compound 1 (10 or 20 mg/kg) or with a vehicle.
Males ICR mice were used.

[6] = Balb/c mice, 12.5, 25 and 50 mg/kg i.p.

Compound: COC(=O)C(N)COCN1CCN(C2=Nc3ccccc3Nc3sc(C)cc32)CC1 (stereo not shown) [Compound 3]
- distance moved, combined with amphetamine ([1]; Balb/c mice, 12.5 mg/kg i.p.): normalization
- distance moved, combined with amphetamine ([1]; Balb/c mice, 12.5, 25 and 50 mg/kg i.p. at -60 minutes): dose-dependent decrease
- immobility, combined with amphetamine ([1]; Balb/c mice, 12.5, 25 and 50 mg/kg i.p., amphetamine 2 mg/kg ip): dose-dependently increased
- effect of amphetamine (hypermotility) ([1]; Balb/c mice, 12.5, 25 and 50 mg/kg i.p., amphetamine 2 mg/kg ip 30 minutes later, open field 20 minutes): dose-dependently antagonized
- hyperactivity ensued by amphetamine ([1]; Balb/c mice, already at 12.5 mg/kg i.p., 12.5 mg/kg): effective; also recorded: antagonized
- distance moved, combined with amphetamine ([1]; Balb/c mice, doses higher than 12.5 mg/kg i.p.): marked decrease
- motility parameters ([2]; Balb/c mice, 50 mg/kg i.p.): marked decrease
- duration of “not moving” periods [2, 6]: dose dependently increased
- number of rearings vs. controls [2, 6]: decreased
- motility (distance moved and velocity) ([2]; Balb/c mice, up to 25 mg/kg i.p.): mild decrease
- MK-801-induced hyperactivity ([3]; Balb/c mice, 7.5 mg/kg): slight effect
- MK-801-induced hyperactivity ([3]; Balb/c mice, 25 mg/kg): normalization of activity
- MK-801-induced hyperactivity ([3]; Balb/c mice, 50 mg/kg): sedation
- MK-801-induced hyperactivity (distance moved) ([3]; Balb/c mice, 12.5, 25 and 50 mg/kg i.p., MK-801 0.15 mg/kg i.p.): dose dependent decrease
- immobility (“not moving” total duration), MK-801 treated ([3]; Balb/c mice, high dose): appeared
- frequency to the center of the field, MK-801 treated ([3]; Balb/c mice, low dose): tended to increase
- time spent in the center, MK-801 treated ([3]; Balb/c mice, low dose): tended to increase
- immobility (“not moving” total duration), MK-801 treated ([3]; Balb/c mice, small and intermediate doses (25 mg/kg)): not found

Compound: CN1C(=O)CN=C(c2ccccc2)c2cc(Cl)ccc21 [diazepam, reference compound]
- number of rearings in the center [4]: significantly increased
- number of rearings in the open arm [4]: increased number of rearings
- velocity [4]: higher

Compound: Cc1cc2c(s1)Nc1ccccc1N=C2N1CCN(C)CC1 [olanzapine, reference compound]
- distance moved [5]: significantly decreased
- immobility [5]: increased
- strong mobility (climbing) [5]: significantly decreased
- velocity [5]: significantly decreased
